What was measured:
[1] = test system: piroxicam-induced gastric ulcers; assay: suppression of piroxicam-induced gastric ulcers by interventions (PBN, free radical scavengers, ascorbate); format: in vivo, rat (male Sprague-Dawley)
Experimental: FIG. 2 is a graph of % control ulceration from piroxicam versus the % ulceration in the presence of free radical scavengers. The […] scavenger dimethylthiourea (DMTU, 500 mg/kg i.p.) was given 24 hours and 1 hour before piroxicam. […] The antioxidant butylated hydroxytoluene (BHT, 25 mg/kg/day i.p. in corn oil) was given for three days before and again 1 hour before piroxicam. The % control ulceration is determined by averaging the ratios of cm^2 ulceration in control stomachs from rats given piroxicam alone, and multiplying×100. +P< 0.01 compared to piroxicam alone.
(§1) Male Sprague-Dawley rats (Charles River, Wilmington, Mass.) weighing 300-325 g were housed individually in wire bottomed cages to prevent ingestion of hair and feces. Animals were maintained without food for 48 hours and without water for 24 hours prior to each experiment. Piroxicam or aspirin and other NSAIDS were suspended in a vehicle of 1% carboxymethylcellulose, 0.1% Tween 80 and 0.15 M HCl, and administered in a volume of 1 ml on the morning of study by oral gavage using an 18 gauge curved blunt needle (Popper and Sons, New Hyde Park, N.Y.). One ml of vehicle alone was administered for control experiments. HCl was added to the vehicle to insure an acid environment in the stomach in all studies. […] Four hours after the administration of NSAID or vehicle, rats were euthanized with sodium pentobarbital (100 mg/kg IP), and the surface area of ulceration per stomach was quantitated using morphometric techniques. Stomachs were removed, the lumen was exposed by an incision along the radius of greater curvature, and the stomach was washed in phosphate buffered saline. The luminal surface was laid out on a flat surface with gross folds removed by gentle distension. The percentage of surface involved with submucosal hemorrhage was then determined by point counting, as described by Weibel, E. R. Stereological Methods: Practical Methods for Biological Morphometry. Academic Press, New York 1980. This was done by tabulation of the percentage of points over ulcerations using a point counting eyepiece graticle (16×16 points in a square format). At the 12X magnification used on the Wild dissecting microscope (Wild-Heerbrugg, Basel, Switzerland), the graticle covered a 1 cm^2 area of the surface. Four to five non-overlapping sampling sites were taken to fully cover the exposed surface. To determine the total luminal surface area, the outline of the outer boundary of the stomach was traced using a transparent acetate sheet, and the area was determined from planimetry. The surface area of ulcerated regions per stomach was then determined by multiplying the surface density of ulceration regions by the luminal surface area of the stomach.
Differences in total luminal surface area in cm^2, surface area of ulcerated regions per stomach and biochemical analyses between each treatment intervention and its corresponding untreated control group are compared using the Mann-Whitney U Test, Dixon, W. J., Massey, F. J., Jr. Introduction to statistical methods, 4th edition. (New York: McGraw Hill, 1983). […] In vitro studies are compared using the Student's unpaired T-test, Dixon, W. J., Massey, F. J., Jr. Introduction to statistical methods, 4th edition. (New York: McGraw Hill, 1983). Values are expressed as mean±SEM. Significance is assumed when P<0.05.
In each experiment, the surface area of gastric ulceration produced by piroxicam in 15 treated rats was compared to that in 15 rats of the same age and size that were fasted simultaneously but which received no intervention. Phenylbutyl nitrone (30 mg/kg) was given orally in water 1 hour before piroxicam and also added to vehicle when piroxicam was administered. When intervention were given with piroxicam, the pH of the final mixture was adjusted if necessary to equal that of piroxicam and vehicle alone.

[2] = in vivo acute toxicity in rodents; conditions: doses up to 3 g/kg in rodents
Description: (§2) In vivo toxicity tests have indicated the following. […] An LD50 has yet to be determined because of the lack of toxicity.

[3] = acute i.v. toxicity in gerbils; format: in vivo; conditions: 10 to 300 mg/kg i.v., injected within 60 seconds
Description: as §2

[4] = continuous i.v. administration toxicity in gerbils; format: in vivo; conditions: 50 mg/kg/hr for a total of 48 hr
Description: as §2

[5] = bioavailability / distribution estimate; format: in vivo
[6] = pharmacokinetic studies, plasma half-life; format: in vivo; conditions: rat; limited pharmacokinetic studies
Description: Limited pharmokinetic studies indicate that the plasma half-life in the rat is three to four hours.

pH stability of PBN = format: physicochemical; conditions: degrades at pH less than approximately
[7] = previous studies, standard techniques; cited from earlier work
gastric ulceration = assay: NSAID-induced gastric ulceration in rats (surface area of ulceration); format: in vivo, rat (male Sprague-Dawley); conditions: aspirin 200, diflunisal 125, naproxen 150, ibuprofen 230 mg/kg; oral gavage, 4 h
Experimental: as §1, with “Animals were maintained without food for 48 hours and without water for 24 hours prior to each experiment.” left out, “Academic Press, New York 1980.” left out
Differences in total luminal surface area in cm^2, surface area of ulcerated regions per stomach and biochemical analyses between each treatment intervention and its corresponding untreated control group are compared using the Mann-Whitney U Test, Dixon, W. J., Massey, F. J., Jr. Introduction to statistical methods, 4th edition. […] In vitro studies are compared using the Student's unpaired T-test, Dixon, W. J., Massey, F. J., Jr. Introduction to statistical methods, 4th edition. […] Values are expressed as mean±SEM. Significance is assumed when P<0.05.
Phenyl N-tert-butyl nitrone is obtained from Aldrich Chemicals, Milwaukee, Wis. All other chemicals and pharmaceuticals are from Sigma Chemical.

[8] = test system: isolated perfused gastric mucosa; conditions: cited from earlier work

CC(C)(C)[N+]([O-])=Cc1ccccc1 [PBN, N-tert-Butyl-α-phenylnitrone]
ulcerations/unit area ([1]; piroxicam 23 mg/kg only, or plus PBN 30 mg/kg orally 1 hour before and with piroxicam, p<0.0052): 0.077±0.104 ulcerations/unit area | inhibition of piroxicam-induced ulcers, in words ([1]; piroxicam 23 mg/kg, FIG. 2): markedly inhibited | adverse effects, acute doses [2]: no adverse effects | acute toxic effects, i.v. [3]: no acute toxic effects | adverse effect, continuous i.v. administration [4]: no adverse effect | Kp ([5]; brain, read-out: brain level as % of the plasma concentration): 0.8 | distribution, in words ([5]; in vivo): widely available throughout the body and is able to cross all of the barriers to distribution, including the blood brain barrier | plasma half-life [6]: three to four | pH below which PBN degrades (pH stability of PBN): 3 to 4 pH | mutagenicity [7]: not mutagenic

O=C1O[C@H]([C@@H](O)CO)C(O)=C1O [ascorbate]
increase in ulceration compared to control stomachs treated with piroxicam alone ([1]; ascorbate plus piroxicam, P<0.001): over 600% | ulceration (ascorbate experiment) ([1]; ascorbate-treated stomachs (with piroxicam) vs piroxicam alone, P<0.001): 0.194±0.039 cm^2

CC(=O)Oc1ccccc1C(=O)O [aspirin]
gastric ulceration caused by NSAID (gastric ulceration): 0.972±0.318 cm^2 | mucosal adenosine triphosphate (ATP) and phosphocreatine (PC) [8]: decreases mucosal adenosine triphosphate (ATP) and phosphocreatine (PC)

O=C(O)c1cc(-c2ccc(F)cc2F)ccc1O [diflunisal]
gastric ulceration caused by NSAID (gastric ulceration): 0.597±0.103 cm^2

CC(C)Cc1ccc(C(C)C(=O)O)cc1 (centres unmarked) [ibuprofen]
gastric ulceration caused by NSAID (gastric ulceration): 0.644±0.110 cm^2

COc1ccc2cc([C@H](C)C(=O)O)ccc2c1 [naproxen]
gastric ulceration caused by NSAID (gastric ulceration): 0.370±0.056 cm^2

Source: patent US5036097A, “Phenylbutyl nitrone compositions and methods for prevention of gastric ulceration” (Oklahoma Medical Research Foundation, priority 1990, dated 1991)
